Where two headings read alike, the source gives them in different places.
System: pgRNA
Assay: pgRNA, HBV-infected HepaRG
Format: cell-based
Conditions: Hepatitis B virus
Protocol: Following 4 day of maturation with 1 μM MB-1, HLC were incubated with HBV (purified from CHB individuals) at multiplicity of infection (MOI) 10-40 without PEG for 24 hr; virus inoculum was removed the following day. HBV infection in PHH was performed at MOI 40+4% PEG. Compound treatment in HLC and PHH was started at day 3 post infection. Compound (in powder) was dissolved in DMSO; the final concentration of DMSO added to cells is 1%. Fresh compound was replenished every 2 day until cells were harvested at day 10 (PHH), or day 14 (HLC). Compound effect on HBV and cellular toxicity was measured by multiplex assay (HBsAg, HBeAg, albumin), branched DNA (pgRNA), or digital PCR (cccDNA) and depicted as % of inhibition compared to DMSO control. Graphs were prepared using Spotfire software.
Levels of pgRNA in infected cells (96-well plate) were measured using QuantiGene Singleplex 2.0 assay (Affymetrix), a hybridization-based assay that utilizes the xMAP™ Luminex magnetic beads and branched DNA (bDNA) signal amplification technology. The assay is performed in 96-well plate according to manufacturer's recommendation. Briefly, cells were lysed and lysates were incubated with HBV probe sets panel at 50-55° C. for 30 min then stored at −80° C. Signal amplification is achieved via sequential hybridization of PreAmplifier, Amplifier, and Label Probe. After adding Streptavidin phycoerythrin (SAPE) substrate, the signal is read using a FlexMap 3D (Luminex) instrument.
Most of HBV in vitro studies, including evaluation of compound antiviral activity, are performed in hepatoma cell lines (HepaRG or HepG2-NTCP) infected with cell culture-derived HBV (e.g. HepG2.2.15-derived virus, GT D). As evaluation of cccDNA destabilizers was performed with patient-derived HBV GT D in PHH (see FIGS. 3F and 4A-4B), the inventors asked whether compound potency would be similar when tested against patient-derived HBV isolates from other GTs, or cell culture-derived virus (HepG2.2.15). To address the first question, PHH (in 384-well plate) were infected with four clinical HBV isolates (GT A-D, at MOI 40). At day 3 pi, cells were treated with compound 7, or DMSO, every other day until harvested and analysed at day 10 pi. Several observations are noteworthy. First, clinical HBV isolates across GTs varied in their replication capacity in PHH; as noted earlier in HLC (see FIG. 21) and also by others (Mabit et al., 1996; Sozzi et al, 2016). […] For each isolate, the amounts of secreted viral antigens are in close agreement with their cccDNA levels; thus, GT A isolate had the highest amount of cccDNA (˜11,000 copies/well), followed by GT C, B, and D (see FIG. 5B). […] Next, the inventors evaluated whether antiviral activity of compound 7 could be affected by the source of virus inoculum. […]

O=C(NC(CO)CO)c1c[nH]c2ncc(C3CC3)nc12 [compound 7]
IC50 (HepG2.2.15-derived HBV GT D, MOI 40, read-out: pgRNA IC50 (μM) Median): 16.8 µM | IC50 (HepG2.2.15-derived HBV GT D, MOI 125, read-out: pgRNA IC50 (μM) Median): 26.6 µM | IC50 (patient-derived HBV GT D, MOI 40, read-out: pgRNA IC50 (μM) Median): 1.93 µM | IC50 (patient-derived HBV GT D, MOI 125, read-out: pgRNA IC50 (μM) Median): 4.62 µM

— patent US20230248723A1, “PYRROLO[2,3-B]PYRAZINE COMPOUNDS AS CCCDNA INHIBITORS FOR THE TREATMENT OF HEPATITIS B VIRUS (HBV) INFECTION” (Hoffmann-La Roche Inc., priority 2017, published 2023)
